According to ChEMBL document CHEMBL1177695, “Discovery and development of natural product-derived chemotherapeutic agents based on a medicinal chemistry approach” (J Nat Prod, 2010):
pEC50, pIC50: −log10 of the molar value. ≈ marks a conversion by molar mass, not a printed value. Blank lines part the entries; values can stand above or below the molecule they belong to.

What was measured:
[1] = Cytotoxicity against human H9 cells after 4 days by coulter counter; type: cell-based; conditions: human, H9 cells; read-out: TI
[2] = test system: Human immunodeficiency virus 1; assay: Antiviral activity against HIV1 3B infected in H9 cells assessed as inhibition of viral replication by p24 antigen ELISA; type: functional, organism-based; conditions: for pEC50: Human immunodeficiency virus 1, 3B, H9, read-out: EC50; for EC50: h9
[3] = test system: KB; assay: Cytotoxicity against human etoposide-resistant KB cells after 72 hrs by MTT assay
[4] = Cytotoxicity against human KB1 cells after 72 hrs by MTT assay; type: functional, cell-based; conditions: KB1, 72 h
[5] = Cytotoxicity against human KB-7d cells after 72 hrs by MTT assay; type: functional, cell-based; conditions: KB7D
[6] = test system: KB; assay: Cytotoxicity against human KB cells after 72 hrs by MTT assay; type: functional, cell-based
[7] = test system: A549; assay: Cytotoxicity against human A549 cells after 3 days by sulforhodamine B assay; type: functional, cell-based; conditions: A549, 72 h
[8] = test system: KB; assay: Cytotoxicity against human KB cells after 3 days by sulforhodamine B assay; type: functional, cell-based; conditions: 72 h
[9] = test system: 1A9; assay: Cytotoxicity against human 1A9 cells after 3 days by sulforhodamine B assay; type: functional, cell-based; conditions: 1A9, 72 h
[10] = Cytotoxicity against human KBVIN cells after 3 days by sulforhodamine B assay; type: functional, cell-based; conditions: 72 h
[11] = test system: PC-3; assay: Cytotoxicity against human PC3 cells after 3 days by sulforhodamine B assay; type: functional, cell-based; conditions: PC-3, 72 h
[12] = test system: A-431; assay: Cytotoxicity against human A431 cells after 3 days by sulforhodamine B assay; type: functional, cell-based; conditions: A-431, 72 h
[13] = test system: HCT-8; assay: Cytotoxicity against human HCT8 cells after 3 days by sulforhodamine B assay; type: functional, cell-based; conditions: HCT-8, 72 h
[14] = Therapeutic index, ratio of IC50 for human H9 cells to EC50 for HIV 3B; type: cell-based; conditions: read-out: TI
[15] = Therapeutic index, ratio of IC50 for human H9 cells to EC50 for HIV1; type: cell-based; conditions: read-out: TI
[16] = test system: Human immunodeficiency virus 1; assay: Antiviral activity against HIV1 infected in human H9 cells after 4 days by p24 antigen ELISA; type: functional, organism-based; conditions: Human immunodeficiency virus 1, H9, 96 h
[17] = Inhibition of tubulin polymerization
[18] = read-out: ED50 (the source's name)

pEC50 [2]: 7.36
Compound: COc1cc2c(c3oc(=O)ccc13)[C@@H](OC(=O)C13CCC(C)(C(=O)O1)C3(C)C)[C@@H](OC(=O)C13CCC(C)(C(=O)O1)C3(C)C)C(C)(C)O2 (some centres not stated)
selectivity ratio at 96 h [1]: > 15

Compound: COC(=O)c1ccc(N[C@@H]2c3cc4c(cc3[C@@H](c3cc(OC)c(O)c(OC)c3)[C@H]3C(=O)OC[C@@H]32)OCO4)cc1
pIC50 [3]: 5.48 | pIC50 [4]: 5.60 | pIC50 [5]: 5.15 | pIC50 [6]: 6.08

Compound: C[C@H]1O[C@H](O[C@H]2CC[C@]3(C=O)[C@H]4CC[C@]5(C)[C@@H](c6ccc(=O)oc6)CC[C@]5(O)[C@@H]4CC[C@]3(O)C2)[C@H](O)[C@@H](O)[C@@H]1O [KALANCHOSIDE A]
IC50 [7]: 0.0005 µg/mL (≈ 0.000889 µM) | IC50 [8]: 0.003 µg/mL (≈ 0.00533 µM) | IC50 [9]: 0.0008 µg/mL (≈ 0.00142 µM) | IC50 [10]: 0.003 µg/mL (≈ 0.00533 µM) | IC50 [11]: 0.002 µg/mL (≈ 0.00355 µM) | IC50 [12]: 0.007 µg/mL (≈ 0.0124 µM) | IC50 [13]: 0.006 µg/mL (≈ 0.0107 µM)

Compound: COc1cc([C@@H]2c3cc4c(cc3[C@@H](Nc3ccc(NC(=O)c5cc([N+](=O)[O-])cn5C)cc3)[C@H]3COC(=O)[C@H]23)OCO4)cc(OC)c1O
pEC50 [5, 18]: 6.70 | pEC50 [6, 18]: 7.40

EC50 [2]: Not Active
Compound: Cc1cc2ccc3c(c2oc1=O)[C@@H](OC(=O)C12CCC(C)(C(=O)O1)C2(C)C)[C@@H](OC(=O)C12CCC(C)(C(=O)O1)C2(C)C)C(C)(C)O3 (some centres not stated)

pEC50 [2]: 6.42
Compound: CC(C)(O)[C@H](O)COc1c2occc2cc2ccc(=O)oc12 [HERACLENOL]
selectivity ratio [14]: 870

pEC50 [2]: 5.72
Compound: O=C(C[C@H](Cc1ccc(O)c(O)c1)C(=O)O)C1=Cc2cc(O)c(O)cc2[C@H](c2ccc(O)c(O)c2)[C@H]1CC[C@H](Cc1ccc(O)c(O)c1)C(=O)O
selectivity ratio [14]: 33.3

Compound: COc1cc([C@@H]2c3cc4c(cc3[C@@H](O[C@@H]3O[C@@H]5CO[C@@H](C)O[C@H]5[C@H](O)[C@H]3O)[C@H]3COC(=O)[C@H]23)OCO4)cc(OC)c1O [ETOPOSIDE]
pIC50 [3]: 4.54 | pIC50 [4]: 4.46 | pIC50 [5]: 4.11 | pEC50 [5, 18]: 4.60 | pIC50 [6]: 6.22 | pEC50 [6, 18]: 6.70

Compound: COc1cc([C@@H]2c3cc4c(cc3[C@@H](Nc3ccc(F)cc3)[C@H]3COC(=O)[C@H]23)OCO4)cc(OC)c1O
pIC50 [3]: 5.14 | pIC50 [4]: 5.40 | pIC50 [5]: 5.08 | pIC50 [6]: 6.17

Compound: COc1cc([C@@H]2c3cc4c(cc3[C@@H](Nc3ccc([N+](=O)[O-])cc3)[C@H]3COC(=O)[C@H]23)OCO4)cc(OC)c1O
pIC50 [3]: 5.52 | pIC50 [4]: 5.21 | pIC50 [5]: 5.11 | EC50 [5, 18]: 2 µg/mL | pIC50 [6]: 6.31 | EC50 [6, 18]: 0.2 µg/mL

pEC50 [2]: 8.10
Compound: Cc1cc2c(c3oc(=O)ccc13)[C@@H](OC(=O)C13CCC(C)(C(=O)O1)C3(C)C)[C@@H](OC(=O)C13CCC(C)(C(=O)O1)C3(C)C)C(C)(C)O2 (some centres not stated)
selectivity ratio at 96 h [1]: > 16

pEC50 [2]: 6.68
Compound: Cc1cc2ccc(=O)oc2c2c1OC(C)(C)[C@H](OC(=O)C13CCC(C)(C(=O)O1)C3(C)C)[C@@H]2OC(=O)C12CCC(C)(C(=O)O1)C2(C)C (some centres not stated)
selectivity ratio at 96 h [1]: > 16

Compound: COc1cc([C@@H]2c3cc4c(cc3[C@@H](Nc3ccc(N)cc3)[C@H]3COC(=O)[C@H]23)OCO4)cc(OC)c1O
pIC50 [3]: 5.70 | pIC50 [4]: 5.46 | pIC50 [5]: 5.12 | pIC50 [6]: 6.23

pEC50 [2]: 7.30
Compound: CC1(C)Oc2ccc3ccc(=O)oc3c2[C@@H](OC(=O)C23CCC(C)(C(=O)O2)C3(C)C)[C@H]1OC(=O)C12CCC(C)(C(=O)O1)C2(C)C (some centres not stated)
selectivity ratio at 96 h [1]: > 16.1

Compound: C=C(C)[C@@H]1CC[C@]2(C(=O)O)CC[C@]3(C)[C@H](CC[C@@H]4[C@@]5(C)CC[C@H](OC(=O)COCC(=O)O)C(C)(C)[C@@H]5CC[C@]43C)[C@@H]12
selectivity ratio [15]: 1170 | pIC50 [16]: 4.93

Compound: CCC1=C(O)c2c(oc(-c3cccc4ccccc34)cc2=O)C(CC)(CC)C1=O [2-(NAPHTHALEN-1-YL)-6,8,8-TRIETHYL DESMOSDUMOTIN B]
EC50 [7]: 0.2 µg/mL (≈ 0.515 µM) | EC50 [8]: 0.2 µg/mL (≈ 0.515 µM) | EC50 [9]: 0.2 µg/mL (≈ 0.515 µM) | EC50 [10]: 0.2 µg/mL (≈ 0.515 µM) | EC50 [11]: 0.2 µg/mL (≈ 0.515 µM) | EC50 [12]: 0.2 µg/mL (≈ 0.515 µM) | EC50 [13]: 0.2 µg/mL (≈ 0.515 µM)

pIC50 [17]: 6.30
Compound: COc1cc2c(c(OC)c1OC)-c1ccc(SC)cc1C(=O)CC2

pEC50 [2]: 7.52
Compound: COc1cc2ccc3c(c2oc1=O)[C@@H](OC(=O)C12CCC(C)(C(=O)O1)C2(C)C)[C@@H](OC(=O)C12CCC(C)(C(=O)O1)C2(C)C)C(C)(C)O3 (some centres not stated)
selectivity ratio at 96 h [1]: > 15

Compound: COC(=O)C[C@@H]1C(=O)CC[C@H](C)C(=O)O[C@@H]2[C@@H]3[C@@H](OC(C)=O)[C@@]45O[C@@]3(C)COC(=O)c3cnccc3[C@@H](C)[C@@H](O)C(=O)O[C@@H]([C@H](OC(C)=O)[C@H](OC(C)=O)[C@@]4(COC1=O)[C@@H]2OC(C)=O)[C@]5(C)O [TRIPTONINE B]
selectivity ratio [14]: > 1000

EC50 [2]: Not Active
Compound: COc1cc2ccc(=O)oc2c2c1OC(C)(C)[C@H](OC(=O)C13CCC(C)(C(=O)O1)C3(C)C)[C@@H]2OC(=O)C12CCC(C)(C(=O)O1)C2(C)C (some centres not stated)

Compound: Cc1c(CBr)c(=O)oc2c3c(ccc12)OC(C)(C)[C@H](OC(=O)C12CCC(C)(C(=O)O1)C2(C)C)[C@@H]3OC(=O)C12CCC(C)(C(=O)O1)C2(C)C (some centres not stated)
selectivity ratio [14]: 186000 | pEC50 [2]: 9.96
